Results published in ChEMBL document CHEMBL4715772, “A facile stereoselective synthesis of dispiro-indeno pyrrolidine/pyrrolothiazole-thiochroman hybrids and evaluation of their antimycobacterial, anticancer and AchE inhibitory activities” (Bioorg Med Chem, 2016).
In brackets after ≈: the same amount, converted by molar mass.

What was measured:
[1] = tested on: Mycobacterium tuberculosis; experiment: Antimycobacterial activity against Mycobacterium tuberculosis H37Rv assessed as inhibition of bacterial growth by microdilution alamar blue broth assay; type: functional, organism-based
[2] = Cytotoxicity against African green monkey Vero cells assessed as cell viability after 72 hrs by MTT assay; type: cell-based; settings: chlorocebus sabaeus, read-out: MNCC
HT-29 = experiment: Antiproliferative activity against human HT-29 cells assessed as inhibition of cell proliferation incubated for 72 hrs by CellTiter-Glo assay; type: functional, cell-based; settings: HT-29, 72 h
MCF7 [3] = experiment: Antiproliferative activity against human MCF7 cells assessed as inhibition of cell proliferation incubated for 72 hrs by CellTiter-Glo assay; type: functional, cell-based; settings: MCF7, 72 h
Acetylcholinesterase = Acetylcholinesterase (Homo sapiens, UniProt P22303); experiment: Inhibition of AChE (unknown origin) using acetylthiocholine chloride as substrate preincubated with enzyme for 15 mins followed by substrate addition by Ellman's method
Sequence of Acetylcholinesterase (P22303 whole entry): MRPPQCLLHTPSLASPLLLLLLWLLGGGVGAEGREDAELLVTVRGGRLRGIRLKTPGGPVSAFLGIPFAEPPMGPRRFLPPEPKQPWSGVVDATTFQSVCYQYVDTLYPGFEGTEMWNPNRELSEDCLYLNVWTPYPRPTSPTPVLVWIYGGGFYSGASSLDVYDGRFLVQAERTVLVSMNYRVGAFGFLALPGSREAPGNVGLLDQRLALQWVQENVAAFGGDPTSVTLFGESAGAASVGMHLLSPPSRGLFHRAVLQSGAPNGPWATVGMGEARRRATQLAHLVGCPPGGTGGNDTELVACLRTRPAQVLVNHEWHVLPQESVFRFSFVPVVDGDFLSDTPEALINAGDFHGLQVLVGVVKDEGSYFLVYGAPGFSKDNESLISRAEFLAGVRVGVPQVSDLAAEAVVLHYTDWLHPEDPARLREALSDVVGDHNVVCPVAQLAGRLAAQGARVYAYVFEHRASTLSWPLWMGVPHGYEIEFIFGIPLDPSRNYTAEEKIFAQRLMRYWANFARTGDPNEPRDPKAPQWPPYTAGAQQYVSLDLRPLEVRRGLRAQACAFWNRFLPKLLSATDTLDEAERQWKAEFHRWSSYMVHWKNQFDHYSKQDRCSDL

MCF7 [4] = experiment: Antiproliferative activity against human MCF7 cells assessed as inhibition of cell proliferation at 50 uM incubated for 72 hrs by CellTiter-Glo assay relative to control; type: functional; settings: MCF7, read-out: INH
[5] = tested on: Mycobacterium tuberculosis; experiment: Potency index, ratio of cycloserine IC50 to test compound IC50 for antimycobacterial activity against Mycobacterium tuberculosis H37Rv by microdilution alamar blue broth assay; type: functional
[6] = tested on: Mycobacterium tuberculosis; experiment: Potency index, ratio of pyrimethamine IC50 to test compound IC50 for antimycobacterial activity against Mycobacterium tuberculosis H37Rv by microdilution alamar blue broth assay; type: functional

Compound | IC50 [1] [µM] | IC90 [1] [µM] | MIC [1] [µM] | MNTC at 72 h [2] [µg/mL] | IC50 (HT-29) [µM] | IC50 (MCF7 [3]) [µM] | IC50 (Acetylcholinesterase) [µM] | inhibition at 50 µM (MCF7 [4]) [%] | Ratio IC50 [5] | Ratio IC50 [6]
Cc1ccc([C@@H]2CN(C)C3(C(=O)c4ccccc4C3=O)[C@]23CSc2ccccc2C3=O)cc1 | 47.2 | 66.5 | 100 (≈ 45.4 µg/mL) | > 6.25 | 101 | 105 | 6.6 | < 50 |  | 
CN1C[C@@H](c2cccc(F)c2)[C@@]2(CSc3ccccc3C2=O)C12C(=O)c1ccccc1C2=O | 4.28 | 9.86 | 25 (≈ 11.4 µg/mL) | > 6.25 | 82.1 | 108 | 24.6 | < 50 |  | 
COc1cccc2c1C(=O)c1c(O)c3c(c(O)c1C2=O)C[C@@](O)(C(=O)CO)C[C@@H]3O[C@H]1C[C@H](N)[C@H](O)[C@H](C)O1 [DOXORUBICIN] |  |  |  |  | 12.9 |  |  |  |  | 
CN1CC(c2ccc(Cl)cc2Cl)[C@@]2(CSc3ccccc3C2=O)C12C(=O)c1ccccc1C2=O (single isomer, unassigned) | 1.07 | 1.98 | 6.25 (≈ 3.18 µg/mL) | > 6.25 | 90 | 107 | 24.1 | < 50 | 12 | 37
O=C1c2ccccc2C(=O)C12N1CSC[C@@H]1C(c1ccccc1Cl)[C@@]21CSc2ccccc2C1=O (single isomer, unassigned) | 8.57 | 14.7 | 50 (≈ 25.9 µg/mL) | > 6.25 | 88.1 | 101 | 33.2 | < 50 |  | 
CC(C)c1ccc([C@@H]2[C@H]3CSCN3C3(C(=O)c4ccccc4C3=O)[C@]23CSc2ccccc2C3=O)cc1 | 45 | 76.4 | 100 (≈ 52.6 µg/mL) | > 6.25 | 93.4 | 91.8 | 28.3 | < 50 |  | 
O=C1c2ccccc2C(=O)C12N1CSC[C@@H]1[C@@H](c1ccccc1Br)[C@@]21CSc2ccccc2C1=O |  |  |  | > 6.25 |  |  |  |  |  | 
O=C1c2ccccc2C(=O)C12N1CSC[C@@H]1[C@@H](c1cccs1)[C@@]21CSc2ccccc2C1=O | 12.9 | 24.6 | 50 (≈ 24.5 µg/mL) | > 6.25 | 94 | 97 | 19.1 | < 50 |  | 
O=C1c2ccccc2C(=O)C12N1CSC[C@@H]1[C@@H](c1cccc(F)c1)[C@@]21CSc2ccccc2C1=O | 16.4 | 22 | 50 (≈ 25.1 µg/mL) | > 6.25 | 91.7 | 116 | 12.2 | < 50 |  | 
CN1C[C@@H](c2ccc(Cl)cc2)[C@@]2(CSc3ccccc3C2=O)C12C(=O)c1ccccc1C2=O | 8.46 | 12.4 | 50 (≈ 23.7 µg/mL) | > 6.25 | 94 | 97 | 22.2 | < 50 |  | 
COc1ccc([C@@H]2CN(C)C3(C(=O)c4ccccc4C3=O)[C@]23CSc2ccccc2C3=O)cc1 | 18.3 | 36.5 | 50 (≈ 23.5 µg/mL) | > 6.25 | 93.4 | 102 | 1.16 | < 50 |  | 
N[C@@H]1CONC1=O [CYCLOSERINE] |  |  | 25 (≈ 2.55 µg/mL) | > 6.25 |  |  |  |  |  | 
CC(C)c1ccc([C@@H]2CN(C)C3(C(=O)c4ccccc4C3=O)[C@]23CSc2ccccc2C3=O)cc1 | 25.9 | 44.6 | 100 (≈ 48.2 µg/mL) | > 6.25 | 98.3 | 93 | 19.8 | < 50 |  | 
CN1C[C@@H](c2ccccc2)[C@@]2(CSc3ccccc3C2=O)C12C(=O)c1ccccc1C2=O | 15.2 | 27.9 | 100 (≈ 44 µg/mL) | > 6.25 | 86.7 | 104 | 11.1 | < 50 |  | 
CN1C[C@@H](c2cccc3ccccc23)[C@@]2(CSc3ccccc3C2=O)C12C(=O)c1ccccc1C2=O | 6.87 | 14.6 | 25 (≈ 12.2 µg/mL) | > 6.25 | 97.2 | 86 | 2.12 | < 50 |  | 
O=C1c2ccccc2C(=O)C12N1CSC[C@@H]1[C@@H](c1cccc(Br)c1)[C@@]21CSc2ccccc2C1=O | 17.2 | 35.5 | 50 (≈ 28.1 µg/mL) | > 6.25 | 79.6 | 84.8 | 38.3 | < 50 |  | 
COc1ccc([C@@H]2[C@H]3CSCN3C3(C(=O)c4ccccc4C3=O)[C@]23CSc2ccccc2C3=O)cc1 | 12.9 | 24.6 | 50 (≈ 25.7 µg/mL) | > 6.25 | 97.2 | 86 | 1.1 | < 50 |  | 

Compound | IC50 [1] [µM] | IC90 [1] [µM] | MIC [1] [µM] | MNTC at 72 h [2] [µg/mL] | IC50 (HT-29) [µM] | IC50 (MCF7 [3]) [µM] | IC50 (Acetylcholinesterase) [µM] | inhibition at 50 µM (MCF7 [4]) [%] | Ratio IC50 [5] | Ratio IC50 [6]
Cc1ccc([C@@H]2[C@H]3CSCN3C3(C(=O)c4ccccc4C3=O)[C@]23CSc2ccccc2C3=O)cc1 | 28.6 | 47.7 | 50 (≈ 24.9 µg/mL) | > 6.25 | 90 | 107 | 7.11 | < 50 |  | 
CN1C[C@@H](c2ccc(Br)cc2)[C@@]2(CSc3ccccc3C2=O)C12C(=O)c1ccccc1C2=O | 29.9 | 41.9 | 50 (≈ 25.9 µg/mL) | > 6.25 | 88.1 | 101 | 28.3 | < 50 |  | 
CN1C[C@@H](c2ccc(F)cc2)[C@@]2(CSc3ccccc3C2=O)C12C(=O)c1ccccc1C2=O | 11.1 | 22 | 50 (≈ 22.9 µg/mL) | > 6.25 | 99.6 | 105 | 23.3 | < 50 |  | 
O=C1c2ccccc2C(=O)C12N1CSC[C@@H]1[C@@H](c1ccc(Br)cc1)[C@@]21CSc2ccccc2C1=O | 21.9 | 47.9 | 50 (≈ 28.1 µg/mL) | > 6.25 | 86.8 | 92.9 | 34.6 | < 50 |  | 
CN1C[C@@H](c2cccc(Br)c2)[C@@]2(CSc3ccccc3C2=O)C12C(=O)c1ccccc1C2=O | 5.81 | 16.1 | 25 (≈ 13 µg/mL) | > 6.25 | 108 | 110 | 19.8 | < 50 |  | 
CN1CC(c2ccccc2Br)[C@@]2(CSc3ccccc3C2=O)C12C(=O)c1ccccc1C2=O (single isomer, unassigned) | 18.3 | 36.5 | 50 (≈ 25.9 µg/mL) | > 6.25 | 86.8 | 92.9 | 27.1 | < 50 |  | 
O=C1c2ccccc2C(=O)C12N1CSC[C@@H]1[C@@H](c1cccc3ccccc13)[C@@]21CSc2ccccc2C1=O | 28.6 | 47.7 | 50 (≈ 26.7 µg/mL) | > 6.25 | 93.4 | 102 | 16.5 | < 50 |  | 
CCc1nc(N)nc(N)c1-c1ccc(Cl)cc1 [PYRIMETHAMINE] |  |  | 100 (≈ 24.9 µg/mL) | > 6.25 |  |  |  |  |  | 
O=C1c2ccccc2C(=O)C12N1CSC[C@@H]1C(c1ccc(Cl)cc1Cl)[C@@]21CSc2ccccc2C1=O (single isomer, unassigned) | 2.87 | 4.6 | 6.25 (≈ 3.45 µg/mL) | > 6.25 | 101 | 105 | 19.5 | < 50 | 4 | 12
NNC(=O)c1ccncc1 [ISONIAZID] |  | 0.29 | 0.31 (≈ 0.0425 µg/mL) | > 6.25 |  |  |  |  |  | 
CC[C@@H](CO)NCCN[C@@H](CC)CO [ETHAMBUTOL] | < 1.56 |  | 12.5 (≈ 2.55 µg/mL) | > 6.25 |  |  |  |  |  | 
O=C1c2ccccc2C(=O)C12N1CSC[C@@H]1[C@@H](c1ccc(F)cc1)[C@@]21CSc2ccccc2C1=O | 13.2 | 25.9 | 50 (≈ 25.1 µg/mL) | > 6.25 | 95.9 | 116 | 19.8 | < 50 |  | 
O=C1c2ccccc2C(=O)C12N1CSC[C@@H]1[C@@H](c1ccc(Cl)cc1)[C@@]21CSc2ccccc2C1=O | 7.2 | 15.5 | 50 (≈ 25.9 µg/mL) | > 6.25 | 76.7 | 104 | 21.3 | < 50 |  | 
CN1CC(c2ccccc2Cl)[C@@]2(CSc3ccccc3C2=O)C12C(=O)c1ccccc1C2=O (single isomer, unassigned) | 47.2 | 66.5 | 100 (≈ 47.4 µg/mL) | > 6.25 | 97.2 | 86 | 10.1 | < 50 |  | 
CN1C[C@@H](c2cccs2)[C@@]2(CSc3ccccc3C2=O)C12C(=O)c1ccccc1C2=O | 25.9 | 44.6 | 100 (≈ 44.6 µg/mL) | > 6.25 | 95.9 | 123 | 21.2 | < 50 |  | 
O=C1c2ccccc2C(=O)C12N1CSC[C@@H]1[C@@H](c1ccccc1)[C@@]21CSc2ccccc2C1=O | 16.3 | 25.5 | 100 (≈ 48.4 µg/mL) | > 6.25 | 92.2 | 93.5 | 12.9 | < 50 |  | 
